Test [1] deals with T1, LTB4 Receptor (Homo sapiens, UniProt Q15722).
T1 construct: Neutrophils were purified from venous blood of normal human donors; endogenous in cells; host or cells: neutrophils from venous blood of normal human donors
Put plainly: LTB4 Receptor Binding Assay ((3H) LTB4, human neutrophils). The note with it: relative to the compound of Example 1 (b), defined as 1.0. As for the experimental part:
(§1) Neutrophils were purified from venous blood of normal human donors using standard techniques of dextran sedimentation, centrifugation on Ficoll-paque® (Pharmacia) or Histopaque® sterile solution (Sigma) and hypotonic lysis of erythrocytes (Boyum, A., Isolation of Leukocytes From Human Blood: Further Observations. Scand. J. Lab. Clin. Invest., 21 (Suppl. 97): 31, 1968). The purity of isolated neutrophils was>95%.
Neutrophils (4-6×10^6) in 1 ml Hanks' balanced salt solution (HBSS) containing 10 mM HEPES buffer , pH 7.4 and […] nordihydroguaiaretic acid were incubated with 0.6×10^-9 M (^3 H) LTB4 in the presence or absence of test compounds. The incubation was carried out at 0° C. for 45 minutes and terminated by adding 5ml of ice-cold HBSS followed by rapid filtration of the incubation mixture under vacuum through GF/C glass fiber filters. The filters were further washed with 10 ml HBSS and radioactivity was determined. Specific binding was defined as the difference between total binding and nonspecific binding which was not displaced by 10^-7 M unlabeled LTB4. All data refer to specific binding.

The test system of test [2] is Human neutrophils (fMLP chemotaxis). Put plainly: Modified Boyden Chamber Chemotaxis, fMLP. The class given is cell-based. The conditions noted are these: relative to the compound of Example 1 (b), defined as 1.0.
Text: [The procedure below names another target; the source lists this target under the same test.] as §1
(§2) Human neutrophils were isolated from citrated peripheral blood using standard techniques of dextran sedimentation, followed by centrifugation on Histopaque® sterile solution (Sigma) or Ficoll-paque® (Pharmacia) and hypotonic lysis of erythrocytes. A final cell suspension of 3.4×10^6 neutrophils/ml of HEPES-buffered Hanks' balanced salt solution (HBSS, pH 7.3) was added to the upper well (0.8 ml ) of a modified Boyden chamber (blind well). The lower well (0.2 ml), separated by a polycarbonate membrane (Nucleopore Corp.), contained HBSS or 3×10^-8 M LTB4 in the presence or absence of test compound. […] The number of neutrophils migrating into the lower chamber in the absence of chemoattractant was subtracted from the number of cells migrating in the presence of a chemoattractant. Inhibition of chemotaxis by test compounds was expressed as percent inhibition relative to uninhibited control.
(§3) Data are expressed as potency relative to the compound of Example i(b ), 7-[3,(4-acetyl-3-methoxy-2propylphenoxy)propoxy]-3,4-dihydro-8-propyl-2H-1-benzopyran-2-carboxylic acid, which is disclosed in U.S. Pat. No. 4,889,871.

Test [3] deals with Human neutrophils (LTB4 chemotaxis). Put plainly: Modified Boyden Chamber Chemotaxis, LTB4. The class given is cell-based. The note with it: relative to the compound of Example 1 (b), defined as 1.0; 3×10^-8 M LTB4.
Text: as §1, §2, §3

SMILES strings stand for the structures. Some results are limits rather than exact numbers.

T1 sequence (Q15722 whole entry): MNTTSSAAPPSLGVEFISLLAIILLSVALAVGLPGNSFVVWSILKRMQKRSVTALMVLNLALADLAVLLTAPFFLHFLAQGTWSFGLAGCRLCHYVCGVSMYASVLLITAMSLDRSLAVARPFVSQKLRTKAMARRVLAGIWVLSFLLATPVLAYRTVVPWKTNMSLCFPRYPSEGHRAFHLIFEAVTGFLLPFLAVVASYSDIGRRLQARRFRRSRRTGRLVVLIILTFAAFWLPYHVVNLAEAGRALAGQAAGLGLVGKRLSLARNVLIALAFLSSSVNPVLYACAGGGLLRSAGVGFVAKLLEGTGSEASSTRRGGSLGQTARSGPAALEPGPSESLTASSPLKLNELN

For `C=CCc1c(OCCCOc2ccc3c(c2CCC)OC(CCC(=O)O)CC3)ccc(C(=O)NC)c1OC` (stereo not drawn) [Example 9, 3,4-Dihydro-7-[3-[3-methoxy-4-[(methylamino)carbonyl]-2-(2-propenyl)phenoxy]propoxy]8-propyl-2H-1-benzopyran-2-propanoic acid], in test [1], the “Relative Potency, LTB4 Receptor Binding” value is 8.9. The “Relative Potency, Chemotaxis fMLP” value in test [2] came to 0.38. The “Relative Potency, Chemotaxis LTB4” value in test [3] stood at 12.3.
With `CCCc1c(OCCCOc2ccc(C(=O)NC)c(OC)c2CCC)ccc2c1OC(CCC(=O)O)CC2` (stereo not drawn) [Example 14, 3,4-Dihydro-7-[3-[3-methoxy-4-[(methylamino)carbonyl]-2-propylphenoxy]propoxy]-8-propyl-2H-1-benzopyran-2-propanoic acid], the “Relative Potency, LTB4 Receptor Binding” value in test [1] is 4.0. The “Relative Potency, Chemotaxis fMLP” value in test [2] is 0.52. For the same compound, the “Relative Potency, Chemotaxis LTB4” value in test [3] is listed as 4.1.
As for `CCCc1c(OCCCOc2ccc(C(=O)NC)c(OC)c2CC2CC2)ccc2c1OC(C(=O)O)CC2` (stereo not drawn) [Example 19, 7-[3-[2-(Cyclopropylmethyl)-3-methoxy-4-[(methylamino)carbonyl]phenoxy]propoxy]-3,4-dihydro-8-propyl-2H-1-benzopyran-2-carboxylic acid], the “Relative Potency, LTB4 Receptor Binding” value in test [1] was 5.3. In test [2], the “Relative Potency, Chemotaxis fMLP” value was found to be 1.57. The “Relative Potency, Chemotaxis LTB4” value in test [3] is listed as 16.9.
In the case of `C=CCc1c(OCCCOc2ccc3c(c2CCC)OC(C(=O)O)CC3)ccc(C(=O)NC)c1OC` (stereo not drawn) [Example 26, 3,4-Dihydro-7-[3-[3-methoxy-4-[(methylamino)carbonyl]-2-(2-propenyl)phenoxy]propoxy]-8-propyl 2H-1-benzopyran-2-carboxylic acid], the “Relative Potency, LTB4 Receptor Binding” value in test [1] is listed as 2.1. In test [2], the “Relative Potency, Chemotaxis fMLP” value came out at 0.95. In addition, the “Relative Potency, Chemotaxis LTB4” value in test [3] was 7.6.
As to `C=CCc1c(OCCCOc2ccc3c(c2CCC)OC(C(=O)O)CC3)ccc(C(=O)N2CCCC2)c1OC` (stereo not drawn) [Example 29, 3,4-Dihydro-7-[3-[3-methoxy-2-(2-propenyl)-4-(1-pyrrolidinylcarbonyl)phenoxy]propoxy]-8-propyl-2H-1-benzopyran-2-carboxylic acid], the “Relative Potency, LTB4 Receptor Binding” value in test [1] came to 1.0. In test [3], the “Relative Potency, Chemotaxis LTB4” value was found to be 0.18.
With `C=CCc1c(OCCCOc2ccc3c(c2CCC)OC(C(=O)O)CC3)ccc(C(N)=O)c1OC` (stereo not drawn) [Example 32, 7-[3-[4-(Aminocarbonyl)-3-methoxy-2-(2-propenyl)phenoxy]propoxy]-3,4-dihydro-8-propyl-2H-1-benzopyran-2-carboxylic acid], the “Relative Potency, LTB4 Receptor Binding” value in test [1] came to 2.1. The “Relative Potency, Chemotaxis fMLP” value in test [2] was determined as 1.5. Moreover, the “Relative Potency, Chemotaxis LTB4” value in test [3] is recorded as 4.0.
With `CCCc1c(OCCCOc2ccc(C(=O)NC)c(OC)c2CCC)ccc2c1OC(C(=O)O)CC2` (stereo not drawn) [Example 35, 3,4-Dihydro-7-[3-[3-methoxy-2-propyl-4-[(methylamino)carbonyl]phenoxy]propoxy]-8-propyl-2H-1-benzopyran-2-carboxylic acid], the “Relative Potency, LTB4 Receptor Binding” value in test [1] worked out at 0.81. The “Relative Potency, Chemotaxis LTB4” value in test [3] worked out at 2.6.
As to `CCCc1c(OCCCOc2ccc(C(N)=O)c(OC)c2CCC)cccc1OCC(=O)O` [Example 43, [3-[3-[4-(Aminocarbonyl)-3-methoxy-2-propylphenoxy]propoxy]-2-propylphenoxy]acetic acid], the “Relative Potency, LTB4 Receptor Binding” value in test [1] is 0.83. Further, the “Relative Potency, Chemotaxis fMLP” value in test [2] was at most 0.63. In test [3], the “Relative Potency, Chemotaxis LTB4” value stood at 1.1.
Consider `CCCc1c(OCCCOc2ccc(C(=O)NC)c(OC)c2CCC)cccc1OCC(=O)O` [Example 46, [3-[3-[3-Methoxy-4-[(methylamino)carbonyl]-2-propylphenoxy]propoxy]-2-propylphenoxy]acetic acid], for which, in test [1], the “Relative Potency, LTB4 Receptor Binding” value came out at 0.71. In addition, the “Relative Potency, Chemotaxis fMLP” value in test [2] was at most 0.048. Also, the “Relative Potency, Chemotaxis LTB4” value in test [3] is listed as 0.58.
With `CCCc1c(OCCCOc2ccc(C(=O)N3CCCC3)c(OC)c2CCC)cccc1OCC(=O)O` [Example 50, [3-[3-[3-Methoxy-2-propyl-4-(1-pyrrolidinylcarbonyl)phenoxy]propoxy]2-propylphenoxy]acetic acid], in test [1], the “Relative Potency, LTB4 Receptor Binding” value turned out to be 0.04. In addition, in test [2], the “Relative Potency, Chemotaxis fMLP” value is under 0.48. The “Relative Potency, Chemotaxis LTB4” value in test [3] was 0.05.
Turning to `C=CCc1c(OCCCOc2cccc(OCC(=O)O)c2CCC)ccc(C(N)=O)c1OC` [Example 56, [3-[3-[4-(Aminocarbonyl)-3-methoxy-2-(2-propenyl)phenoxy]propoxy]-2-propylphenoxy] acetic acid], in test [1], the “Relative Potency, LTB4 Receptor Binding” value is 1.0. The “Relative Potency, Chemotaxis fMLP” value in test [2] was under 0.63. The “Relative Potency, Chemotaxis LTB4” value in test [3] was found to be 2.6.
`C=CCc1c(OCCCOc2cccc(OCC(=O)O)c2CCC)ccc(C(=O)N2CCCC2)c1OC` [Example 59, [3-[3-[3-Methoxy-2-(2-propenyl)-4-(1-pyrrolidinylcarbonyl)phenoxy]propoxy]-2-propylphenoxy]acetic acid]: the “Relative Potency, LTB4 Receptor Binding” value in test [1] turned out to be 0.04. In addition, the “Relative Potency, Chemotaxis LTB4” value in test [3] is under 0.9.
For the compound `CCCc1c(OCCCOc2ccc(C(=O)NC)c(OC)c2CC2CC2)ccc2c1OC(CCC(=O)O)CC2` (stereo not drawn) [Example 62, 7-[3-[2-(Cyclopropylmethyl)-3-methoxy-4-[(methylamino)carbonyl]phenoxy]propoxy]-3,4-dihydro-8-propyl-2H-1-benzopyran-2-propanoic acid], in test [1], the “Relative Potency, LTB4 Receptor Binding” value is 8.5. In addition, in test [2], the “Relative Potency, Chemotaxis fMLP” value turned out to be 0.69. For the same compound, the “Relative Potency, Chemotaxis LTB4” value in test [3] is given as 17.4.

For the origin of these results see US5124350A, “Leukotriene B4 antagonists” (G. D. Searle & Co., priority 1990, dated 1992).
